According to the supplement of paper PMC11451515:

System: P12-Ichikawa
Experiment: cell viability relative to DMSO control; higher = less cytotoxic
Conditions: 48 h
Method in brief: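 Cells were incubated for 48 h at 37°C before CellTiter-Glo One luminescence was read. The cells were NOMO1 or SEM (500 cells/well) or P12-Ichikawa (1000 cells/well) leukemia cells, adapted for at least four passages in each medium and seeded in 1536-well plates (5 μl). Dosing used library compounds in DMSO applied by pin over 11 threefold points, 47 μM to 0.79 nM. Viability is the per-plate percentage of DMSO wells, with cell-free wells as background.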

[1] = HPLM + 10% dialyzed FBS, 0.000781 µM
[2] = HPLM + 10% dialyzed FBS, 0.00234 µM
[3] = HPLM + 10% dialyzed FBS, 0.00702 µM
[4] = HPLM + 10% dialyzed FBS, 0.0211 µM
[5] = HPLM + 10% dialyzed FBS, 0.0632 µM
[6] = HPLM + 10% dialyzed FBS, 0.19 µM
[7] = HPLM + 10% dialyzed FBS, 0.569 µM
[8] = HPLM + 10% dialyzed FBS, 1.71 µM
[9] = HPLM + 10% dialyzed FBS, 5.12 µM
[10] = HPLM + 10% dialyzed FBS, 15.4 µM
[11] = HPLM + 10% dialyzed FBS, 46.1 µM
[12] = RPMI 5 mM glucose + 10% FBS, 0.000781 µM
[13] = RPMI 5 mM glucose + 10% FBS, 0.00234 µM
[14] = RPMI 5 mM glucose + 10% FBS, 0.00702 µM
[15] = RPMI 5 mM glucose + 10% FBS, 0.0211 µM
[16] = RPMI 5 mM glucose + 10% FBS, 0.0632 µM
[17] = RPMI 5 mM glucose + 10% FBS, 0.19 µM
[18] = RPMI 5 mM glucose + 10% FBS, 0.569 µM
[19] = RPMI 5 mM glucose + 10% FBS, 1.71 µM
[20] = RPMI 5 mM glucose + 10% FBS, 5.12 µM
[21] = RPMI 5 mM glucose + 10% FBS, 15.4 µM
[22] = RPMI 5 mM glucose + 10% FBS, 46.1 µM
[23] = RPMI 5 mM glucose + 10% dialyzed FBS, 0.000781 µM
[24] = RPMI 5 mM glucose + 10% dialyzed FBS, 0.00234 µM
[25] = RPMI 5 mM glucose + 10% dialyzed FBS, 0.00702 µM
[26] = RPMI 5 mM glucose + 10% dialyzed FBS, 0.0211 µM
[27] = RPMI 5 mM glucose + 10% dialyzed FBS, 0.0632 µM
[28] = RPMI 5 mM glucose + 10% dialyzed FBS, 0.19 µM
[29] = RPMI 5 mM glucose + 10% dialyzed FBS, 0.569 µM
[30] = RPMI 5 mM glucose + 10% dialyzed FBS, 1.71 µM
[31] = RPMI 5 mM glucose + 10% dialyzed FBS, 5.12 µM
[32] = RPMI 5 mM glucose + 10% dialyzed FBS, 15.4 µM
[33] = RPMI 5 mM glucose + 10% dialyzed FBS, 46.1 µM

Structure (SMILES)	cell viability [1]	cell viability [2]	cell viability [3]	cell viability [4]	cell viability [5]	cell viability [6]	cell viability [7]	cell viability [8]	cell viability [9]	cell viability [10]	cell viability [11]	cell viability [12]	cell viability [13]	cell viability [14]	cell viability [15]	cell viability [16]	cell viability [17]	cell viability [18]	cell viability [19]	cell viability [20]	cell viability [21]	cell viability [22]	cell viability [23]	cell viability [24]	cell viability [25]	cell viability [26]	cell viability [27]	cell viability [28]	cell viability [29]	cell viability [30]	cell viability [31]	cell viability [32]	cell viability [33]
CCOC(=O)c1ncn2c1CN(C)C(=O)c1cc(F)ccc1-2	120%	113%	113%	117%	107%	107%	111%	106%	72%	67.7%	62%	106%	113%	109%	114%	116%	126%	103%	106%	92.2%	71.7%	48.9%	112%	119%	107%	119%	123%	113%	116%	102%	84.8%	74.4%	46.7%
Cc1cc(SCc2sc(-c3ccc(C(F)(F)F)c(F)c3)nc2C)ccc1OCC(=O)O	106%	104%	100%	92.4%	105%	106%	106%	101%	100%	86.2%	91.5%	98.4%	102%	93.1%	81.6%	97.3%	99.7%	94.4%	93.4%	96.7%	89.5%	87.9%	93.3%	94.4%	96.7%	92.8%	89.5%	97%	93.6%	92.8%	98%	80.9%	76.3%
COc1cc2ncnc(Nc3ccc(F)c(Cl)c3)c2cc1OCCCN1CCOCC1	115%	114%	120%	115%	112%	113%	117%	111%	100%	95.4%	4.05%	122%	113%	109%	109%	112%	109%	114%	106%	104%	111%	93.7%	111%	116%	116%	115%	113%	109%	111%	112%	106%	101%	86.6%
COc1ccc(-c2nc3cc(C4=NNC(=O)CC4C)ccc3[nH]2)cc1 (configuration not stated)	104%	105%	109%	113%	107%	114%	108%	114%	105%	106%	98.7%	103%	110%	110%	111%	115%	105%	108%	105%	113%	111%	117%	88.3%	98.5%	104%	103%	108%	93.2%	102%	104%	109%	110%	84.1%
CC(C)(O)CNc1nc(Nc2ccnc(C(F)(F)F)c2)nc(-c2cccc(C(F)(F)F)n2)n1	101%	103%	107%	107%	106%	102%	99.4%	104%	8.99%	10.4%	15.2%	103%	115%	100%	114%	104%	118%	111%	107%	10.2%	10.7%	13.2%	99.6%	106%	115%	117%	123%	109%	117%	118%	17.5%	21.5%	26.8%
COc1ccc(CCC(=O)Nc2nc3ccc(Cl)cc3s2)cc1OC	106%	106%	106%	112%	111%	107%	110%	102%	104%	99.3%	98.6%	109%	118%	94.9%	114%	111%	110%	110%	108%	109%	107%	92.1%	113%	94.1%	105%	113%	110%	105%	99.7%	105%	103%	91.9%	92.6%
CC(C)[C@H](CO)Nc1nc(Nc2ccc(C(=O)O)c(Cl)c2)c2ncn(C(C)C)c2n1	119%	120%	116%	121%	119%	115%	96.1%	103%	87.1%	96.3%	92.9%	111%	124%	117%	134%	127%	130%	95.7%	88.4%	89.2%	93%	69.9%	119%	122%	130%	111%	120%	129%	102%	94%	87.1%	102%	73.7%
Nc1ccc([S+](=O)([O-])Nc2ccccn2)cc1	117%	116%	115%	123%	117%	117%	130%	119%	115%	120%	125%	105%	105%	113%	117%	118%	112%	121%	116%	127%	123%	127%	113%	117%	116%	113%	119%	115%	125%	119%	124%	131%	127%
COc1cc(N2CCC(N3CCN(C)CC3)CC2)ccc1Nc1ncnc(Nc2ccccc2[S+](=O)([O-])C(C)C)n1	113%	117%	120%	125%	97.9%	128%	122%	117%	115%	90.1%	28.4%	97.4%	90.7%	100%	110%	74.5%	112%	106%	103%	103%	91.2%	44.9%	112%	97%	118%	119%	84%	125%	120%	119%	114%	83.4%	47.3%
CCCCOc1ccc(C(=O)Nc2ccc(F)cc2F)cc1	83.2%	95.7%	83.5%	86.5%	90.6%	85.3%	89.1%	97.1%	96%	102%	67.1%	78.9%	91.8%	82%	92.9%	89.4%	89.5%	89.4%	93%	89%	88.1%	84.3%	84%	83.7%	79.2%	87.1%	83.9%	80.2%	86.7%	89.3%	92.5%	87.3%	86.6%
O=C(NC1CC1)c1cccc(-c2ccc3c(NC(=O)C4CC4)n[nH]c3c2)c1	109%	109%	108%	113%	114%	113%	112%	112%	95.2%	39.5%	13.1%	111%	114%	113%	127%	121%	124%	110%	113%	101%	43.5%	12.6%	110%	120%	118%	121%	118%	116%	114%	112%	102%	55.3%	24.5%
CN(C)c1nc(N(C)C)nc(N(C)C)n1	108%	108%	104%	104%	101%	103%	94.4%	94.3%	89.6%	94%	83.5%	103%	100%	98.3%	95.9%	90.5%	93.9%	98.8%	87.2%	87.9%	89.9%	93.2%	90.3%	99.9%	95.5%	99.6%	97.1%	91.6%	91.9%	85%	87.9%	90.7%	86.8%
COc1ccc2cccc(CCNC(C)=O)c2c1	104%	100%	102%	102%	96%	103%	99%	104%	102%	92.7%	89.6%	98.3%	104%	105%	109%	103%	107%	104%	101%	99.6%	97.8%	95.9%	97.6%	103%	110%	96.8%	104%	104%	97.4%	93.8%	94.3%	98.2%	89.6%
OC1=C(C=CC=C1)C2=CC=C(C=C2)C3=CSC4=C3C(=C(/C#N)C(=O)N4)/O	124%	127%	124%	124%	119%	119%	112%	116%	114%	111%	110%	–	–	–	–	–	–	–	–	–	–	–	–	–	–	–	–	–	–	–	–	–	–
CC1=C(/C=C/C(C)=C/C=C/C(C)=C/C(=O)Nc2ccc(O)cc2)C(C)(C)CCC1	85.1%	83.4%	85.5%	96.1%	90.8%	91.8%	93.8%	68.5%	23.7%	8.54%	3.66%	82%	88.8%	83%	91.8%	86.3%	81.9%	87%	57.9%	28.5%	7.98%	1.15%	83.3%	85.9%	84%	84.8%	83.4%	81.5%	83.3%	23.8%	6.39%	4.24%	1.74%
COC1=CC=C(C=C1)C/2=C/OC3=CC(=CC=C3C2=O)O	122%	116%	114%	112%	124%	111%	115%	102%	106%	104%	96.7%	120%	120%	115%	120%	121%	112%	118%	111%	113%	114%	103%	116%	111%	115%	118%	108%	105%	117%	104%	108%	96.2%	101%
Cc1nc2c([nH]1)-c1ccccc1N(C(=O)c1ccc(NC(=O)c3ccccc3-c3ccccc3)cc1)CC2	114%	120%	122%	117%	127%	126%	124%	128%	121%	128%	128%	–	–	–	–	–	–	–	–	–	–	–	–	–	–	–	–	–	–	–	–	–	–
